Reference: patent publication US12377176B2, “Cancer diagnostic imaging agents” (Technische Universität München, priority 2019, dated 2025)
Where “and” joins values, the source holds several entries; their conditions need not be identical. Identical values can stand only once. Like-named read-outs stand apart in the source and are kept apart here.

What was measured:
PSMA = target: T1, PSMA (Homo sapiens, UniProt Q04609); assay: Determination of IC50: PSMA affinity, competition with ([125I]I-BA)KuE on LNCaP cells; format: binding; conditions: LNCaP cells, [125I]IB-KuE 0.2 nM, 1 h, 4 °C
T1 construct: endogenous in cells; host or cells: LNCaP cells
Experimental: After removal of the culture medium, the cells were treated once with 500 μL of HBSS (Hank's balanced salt solution, Biochrom, Berlin, Germany, with addition of 1% bovine serum albumin (BSA)) and left 15 min on ice for equilibration in 200 μL HBSS (1% BSA). […] Quantification of bound and free radioligand was accomplished in a γ-counter.

[1] = Metabolic stability and 18F/19F isotopic exchange in mouse urine (radio-HPLC, radio-TLC); format: in vitro ADME, mice
Experimental: Analytical reversed-phase high pressure chromatography (RP-HPLC) were performed using Shimadzu gradient systems (Shimadzu Deutschland GmbH, Neufahrn, Germany), equipped with a SPD-20A UV/Vis detector (220 nm, 254 nm). […] Eluents for all HPLC operations were water (solvent A) and acetonitrile (solvent B), both containing 0.1% trifluoroacetic acid. […] The gradient for all HPLC operations was: 5% B isocratic 0-3 min, 25-35% B 3-43 min, 95-95% B 43-48 min.
For radio-thin-layer chromatography, aluminum sheets coated with silica gel 60 RP-18 F254s were used with a mobile phase consisting of a 3:2 mixture (v/v) of MeCN in H2O supplemented with 10% of 2 M aqueous NaOAc and 1% of TFA. Analysis was performed using either a Scan-RAM radio-TLC detector (LabLogic Systems Ltd., Sheffield, United Kingdom) or a CR 35 BIO phosphorimager (Duerr Medical GmbH, Bietigheim-Bissingen, Germany).
For in vivo μmetabolism studies, 8-12 MBq (<0.6 nmol) of the respective ^18F-labeled ligand (rhPSMA-7.1-7.4) was injected into the tail vein of female healthy CB17-SCID mice (n=4). Mice were left under anesthesia for 30 min and the urine was collected using a bladder catheter. Urine samples were pooled and centrifuged for 5 min at 9000 rpm to remove suspended solids. The supernatant was directly used for radio-HPLC analysis with the above mentioned conditions. […]

[2] = Octanol-water partition coefficient (n-octanol/PBS pH 7.4); format: physicochemical
Experimental: Approximately 1 MBq of the labeled tracer was dissolved in 1 mL of a 1:1 mixture (by volumes) of phosphate buffered saline (PBS, pH 7.4) and n-octanol in an Eppendorf tube. After vigorous mixing of the suspension for 3 minutes at room temperature, the vial was centrifuged at 15000 g for 3 minutes (Biofuge 15, Heraus Sepatech, Osterode, Germany) and 100 μL aliquots of both layers were measured in a gamma counter. The experiment was repeated at least six times.
Determianation of the logP values was carried out in phosphate buffered saline (PBS, pH 7.4) and n-octanol (=logPoct/PBS).

[3] = test system: LNCaP tumor-bearing CB-17 SCID mice; assay: Biodistribution in LNCaP tumor-bearing SCID mice, 1 h p.i., with or without PMPA
Experimental: To establish tumor xenografts, LNCaP cells (10^7 cells/200 μL) were suspended in a 1:1 mixture (v/v) of Dulbecco modified Eagle medium/Nutrition Mixture F-12 with Glutamax-I (1:1) and Matrigel (BD Biosciences, Germany), and inoculated subcutaneously onto the right shoulder of 6-8 weeks old CB17-SCID mice (Charles River, Sulzfeld, Germany). Mice were used for when tumors had grown to a diameter of 5-8 mm (3-4 weeks after inoculation).
Approximately 1-2 MBq (<0.2 nmol) of the ^18F-labeled PSMA inhibitor was injected into the tail vein of LNCaP tumor-bearing male CB-17 SCID mice and sacrificed after 1 h post injection (n=4-5). Selected organs were removed, weighted and measured in a γ-counter

T1 sequence (Q04609 whole entry): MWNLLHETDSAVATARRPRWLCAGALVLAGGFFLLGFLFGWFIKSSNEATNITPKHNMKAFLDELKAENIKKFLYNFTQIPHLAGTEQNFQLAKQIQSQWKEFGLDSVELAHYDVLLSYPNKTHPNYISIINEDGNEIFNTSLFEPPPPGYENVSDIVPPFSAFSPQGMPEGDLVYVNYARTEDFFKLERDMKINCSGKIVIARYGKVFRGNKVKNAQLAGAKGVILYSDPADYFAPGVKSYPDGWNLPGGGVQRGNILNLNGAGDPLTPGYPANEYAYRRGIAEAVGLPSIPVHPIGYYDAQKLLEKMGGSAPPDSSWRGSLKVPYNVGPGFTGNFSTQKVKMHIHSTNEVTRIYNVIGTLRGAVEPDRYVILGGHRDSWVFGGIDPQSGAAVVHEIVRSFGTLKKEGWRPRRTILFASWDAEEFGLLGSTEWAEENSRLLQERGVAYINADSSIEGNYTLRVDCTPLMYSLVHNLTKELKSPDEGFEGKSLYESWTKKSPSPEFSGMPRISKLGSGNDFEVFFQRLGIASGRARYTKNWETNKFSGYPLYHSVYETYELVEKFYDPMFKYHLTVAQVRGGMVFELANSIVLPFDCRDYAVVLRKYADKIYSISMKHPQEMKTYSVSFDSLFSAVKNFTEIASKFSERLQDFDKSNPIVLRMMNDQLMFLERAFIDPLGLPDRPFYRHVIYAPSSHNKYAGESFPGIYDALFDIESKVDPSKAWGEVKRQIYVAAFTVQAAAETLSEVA

Molecule | IC50 (PSMA; HBSS+1% BSA, single measurements, read-out: individual IC50 measurements) | IC50 (PSMA; mean of the individual measurements, read-out: IC50 Mean) | [F-18]rhPSMA7.3 share of radioactivity in urine ([1]; after addition of 5 nmol [F-19]rhPSMA7-3, room temperature) | [F-18]rhPSMA7.3 share of radioactivity in urine ([1]; radioactive urine before addition of cold [F-19]rhPSMA7.3) | logP ([2]; n-octanol/PBS, pH 7.4, octanol/PBS7.4, mean of individual measurements, read-out: log P Mean) | individual log P measurements ([2]; octanol/PBS7.4, single measurements) | Biodistribution adrenals [3] | Biodistribution blood [3] | Biodistribution bone [3] | Biodistribution heart [3] | Biodistribution intestine [3] | Biodistribution kidneys [3] | Biodistribution liver [3] | Biodistribution lung [3] | Biodistribution muscle [3] | Biodistribution pancreas [3] | Biodistribution spleen [3] | Biodistribution stomach [3] | Biodistribution tumor [3]
CC(C)(C)[Si](F)(c1ccc(C(=O)NC[C@@H](NC(=O)CC[C@@H](C(=O)O)N2CCN(CC(=O)O)CCN(CC(=O)O)CCN(CC(=O)O)CC2)C(=O)N[C@H](CCCCNC(=O)CCC(=O)NCCC[C@@H](NC(=O)CC[C@H](NC(=O)N[C@@H](CCC(=O)O)C(=O)O)C(=O)O)C(=O)O)C(=O)O)cc1)C(C)(C)C [rhPSMA7.3, [^19F][^natGa]D-Dap-S-DOTAGA-rhPSMA7, metal not drawn] | 3.17 nM and 2.91 nM and 5.35 nM and 5.74 nM and 4.59 nM and 4.45 nM | 4.37 nM | 85.8% | 79.4% | -3.26 | −3.02 and −3.06 and −3.07 and −2.86 and −3.39 and −3.33 and −3.34 and −3.20 and −3.40 and −3.41 and −3.48 and −3.49 and −3.32 and −3.45 and −3.53 and −3.43 and −3.56 and −3.03 and −3.08 | – | – | – | – | – | – | – | – | – | – | – | – | –
[^19F][^natGa]D/L-Dap-R/S-DOTAGA-rhPSMA7 [rhPSMA7-rac] | – | – | – | – | – | – | 3.0 ± 0.45 % ID/g | 1.1 ± 0.03 % ID/g | 0.91 ± 0.11 % ID/g | 0.69 ± 0.07 % ID/g | 0.60 ± 0.27 % ID/g | 71.3 ± 13.3 % ID/g | 0.67 ± 0.07 % ID/g | 1.4 ± 0.17 % ID/g | 0.36 ± 0.06 % ID/g | 0.60 ± 0.10 % ID/g | 11.1 ± 2.3 % ID/g | 0.49 ± 0.07 % ID/g | 10.4 ± 0.67 % ID/g
